Values of other authors in patent US20050002962A1, “Immunostimulatory agents in botanicals” (priority 2003, published 2005).

What was measured:
[1] = test system: mice; details: mouse, in vivo
[2] = test system: macrophages; details: 250 μg/ml

Row | Compound | carbon clearance [1] | macrophage IL-1 production, of maximal E. coli LPS (10 μg/ml) [2] [%] | macrophage interferon-β production versus maximal E. coli LPS (10 μg/ml) [2]
1 | O=C(/C=C/c1ccc(O)c(O)c1)O[C@@H](C(=O)O)[C@@H](OC(=O)/C=C/c1ccc(O)c(O)c1)C(=O)O [cichoric acid, Cichoric acid] | enhanced carbon clearance |  | 
2 | arabinogalactan |  | 20 | equal to
3 | echinacoside | inactive |  | 
